Reference: US7129218B2, “Use of rhamnolipids in wound healing, treatment and prevention of gum disease and periodontal regeneration” (Paradigm Biomedical, Inc., priority 1999, dated 2006)

Experiments:
burn wounds = assay: Burn wounds, 7% body surface, topical treatment (rats); assay type: in vivo, Sprague-Dawley rats; conditions: for mean value of collagen tissue: histopathology day 45; for mean value of collagen concentration relative to placebo group 1 D taken as 100%: day 45
Experimental: The wounding of animals was performed according to the Protocol for Animal Use and Care at the University of California-Davis (hereafter UC-Davis). The entire animal protocol required 70 Sprague-Dawley rats: 30 rats for incision wounds and 40 rats for burn wounds. Among them 36 rats were burned over 7% of their skin and 4 rats were burned over 15% of their skin. Incision wounds of whole skin and burn wounds were treated topically with 2 test doses of the pharmaceutical preparation of di-rhamnolipid BAC-3. […] D.E.A. Hamburg); 23.8 g Lanolinum (Producer I.O.I. Hamburg); 4.7 g Cholesterin (Producer: Solvay, Wiena, Austria); Water Number: 320); or b). 1%; 0.1% active rhamnolipid (BAC-3) with antiseptic (chlorhexidine hydrochloride-[…]). Eucerin with BAC-3 was administrated twice daily during healing. The same experiment had one control group without the treatment, and one control group which was treated with ointment+1% chlorhexidine hydrochloride. During the experiment, animal body weight and behavior was checked every third day, and photographs were taken periodically. Burn wounds. The consecutive burn wounds should ideally be identical in depth and extent. The standard method defines the size and location of the burn wound, the temperature gradient, duration of exposure and method of applying the burn. The wound surface areas tested were of two different sizes. One size to 7% of the body surface, which enables one to compare the rate of wound healing with different percentage of BAC-3 and the other size to 15% of the body surface, which is a sufficient size so that healing could not occur by contraction alone. On the other hand, the total wound surface area should not cause major systematic problems. The latter can be concluded from undisturbed weight gain of the animals. The standard animal burn was performed by techniques and device described by Walker. The burning devices were prepared using a model device ordered from U.S. Army Surgical Research Unit, Experimental Surgery, Army Medical Center, Fort Sam Houston, Tex. 78234. […] The surface of the skin was measured for every animal using Mech's formula: A=kW^2/3; A=surface area in cm^2; W=body weight in grams; k=10. Method of burning. Each animal was anesthetized with sodium pentobarbital administered i/p (5 mg/25 g). (Producer: Veterinary Laboratory Inc. Lenexa, Kans.). The hair over the dorsum was clipped with animal clippers. The animal was placed supine in the burning device and the extremities were tied; the malleable retractor was placed over the animal and secured snugly with plastic straps. The entire device was then picked up by the retractor ends with forceps and the exposed area was immersed in boiling water. Ten seconds of exposure was sufficient to produce a full-thickness burn. On removal from the water, the dorsum was quickly dried by rolling on a towel and the animal was released and individually caged. This procedure produced a uniform burn with sharp margins. On post burn days 7, 14 and 45, animals were sacrificed by overdose of sodium pentobarbital and skin specimens were taken for histopathology. Specimens included the wound bed as well as the healthy skin of the wound margins. The specimens were fixed, and two stainings were routinely performed: Hematoxylin-Eosin (H&E) for microscopic evaluation, Verhoeff's staining for a better visualization of the crust and the regenerating dermis, and the alpha smooth muscle acting to identify the myofibroblasts. Microscopic findings were interpreted by a veterinarian pathologist. During the microscopic and macroscopic observations, four wound healing parameters were evaluated: crust formation, re-epithelialization, formation of granulation tissue and inflammation. 36 rats were divided into 6 groups. Each group had six animals. After burning rats according to the above-described procedure, each rat was caged individually. […]

[1] = system: neonatal human keratinocyte cells; assay: Caspase detection in neonatal human keratinocyte cells in GM medium (with serum); assay type: cell-based
Experimental: The procedure for caspase detection in neonatal human keratinocyte cells in GM* medium (with serum) treated with BAC-3 using fluorescence spectroscopy
The same procedure as described for keratinocyte cells in KGM, but with presence of serum (GM). Passage #3 cells were grown in KGM medium for 7 days with one medium change. Plates were irradiated with UVB light for 66 seconds (792 J/m^2)
Cells, at 80% confluence, were administered BAC-3 in GM at 100 μg/ml, 50 μg/ml, 10 μg/ml and 1 μg/ml concentrations. Medium was replaced every two days over the period of 6 days. On day 3, positive apoptosis control was established by irradiating cells with 792 J/m^2 UVB light and incubating them with 1 μg/ml FAS antibody. BAC-3 treated and control cells were harvested and cell densities were adjusted to 1×10^6 cells per ml with FM. 300 μl cell aliquots were labeled with FAM-VAD-FMK, fluorescent-tagged, irreversible caspase inhibitor. Unlabelled inhibitor was washed away with buffer and 100 μl aliquots were read at 485 nm excitation and 535 nm emission with fluorescence detector. Error bars indicate standard deviations.

CCCCCCCC(CC(=O)O)OC(=O)CC(CCCCCCC)OC1OC(C)C(O)C(O)C1OC1OC(C)C(O)C(O)C1O [BAC-3, (α-L-rhamnopyranosyl-(1,2)-α-L-rhamnopyranosyl)-3-hyroxydecanoyl-3-hydroxydecanoic acid]
body weights among the treatment groups (burn wounds; 1% and 0.1% BAC-3 in eucerin vs vehicle, 45 days): no significant differences | rate of burn wound closure (decrease in wound size) vs vehicle alone (burn wounds; 7% burn, 0.1% BAC-3 in eucerin twice daily, no chlorhexidine, FIG. 1): significantly faster | burn wound size (distance across wound edges) vs vehicle alone (burn wounds; 7% burn, 0.1% BAC-3 in eucerin, days 14, 21 and 28, p<0.05 by ANOVA, FIG. 2): significantly smaller | crust formation, difference between groups (burn wounds; 7% burn, BAC-3 1% or 0.1% ointment with or without chlorhexidine vs placebo, 45 days): no significant differences | granulation tissue (burn wounds; 7% burn, group 1-A, 1% BAC-3 in ointment twice daily): prominently developed | re-epithelization in the middle part of the burn wounds (burn wounds; 7% burn, group 1-B, 0.1% BAC-3 in ointment twice daily): faster | mean value of collagen tissue (burn wounds; 7% burn, group 1 A, 1% BAC-3 ointment, no chlorhexidine): 8.48 mm^2 | mean value of collagen tissue (burn wounds; 7% burn, group 1 B, 0.1% BAC-3 ointment, no chlorhexidine): 5.15 mm^2 | granulation tissue (burn wounds; 7% burn, group 2-A, 1% BAC-3 in ointment plus 1% chlorhexidine hydrochloride twice daily): prominently developed | re-epithelization in the middle part of the burn wounds (burn wounds; 7% burn, group 2-B, 0.1% BAC-3 in ointment plus 1% chlorhexidine hydrochloride twice daily): faster | hair growth during the healing period (burn wounds; group 1-A, 1% BAC-3 in ointment, compared to the other groups): very prominent | mean value of collagen concentration relative to placebo group 1 D taken as 100% (burn wounds; group 1 A, 1% BAC-3): 131.26% | mean value of collagen concentration relative to placebo group 1 D taken as 100% (burn wounds; group 1 B, 0.1% BAC-3): 79.72% | optimal concentration for inhibiting apoptosis ([1]; keratinocytes in GM with serum, 6 days, tested 100, 50, 10, 1 and 0.5 μg/ml): 50 µg/mL | effect on apoptosis (caspase enzyme activity) ([1]; keratinocytes in GM, presence of serum): inhibited
